The source made the active and inactive calls.
Columns and labels:
[1] = target: T1, Heat shock factor protein 1 (Mus musculus, UniProt P38532); experiment: decrease of HSF1-responsive luciferase luminescence – cell-based, NIH3T3, dose retest, confirmation (AID 2382); assay type: functional;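 also: NIH3T3 fibroblasts with HSF1-driven luciferase reporter stressed by proteasome inhibitor MG132; luminescence from HSF1-driven luciferase expression after 8 hours of MG132 stress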
T1 sequence (P38532 whole entry): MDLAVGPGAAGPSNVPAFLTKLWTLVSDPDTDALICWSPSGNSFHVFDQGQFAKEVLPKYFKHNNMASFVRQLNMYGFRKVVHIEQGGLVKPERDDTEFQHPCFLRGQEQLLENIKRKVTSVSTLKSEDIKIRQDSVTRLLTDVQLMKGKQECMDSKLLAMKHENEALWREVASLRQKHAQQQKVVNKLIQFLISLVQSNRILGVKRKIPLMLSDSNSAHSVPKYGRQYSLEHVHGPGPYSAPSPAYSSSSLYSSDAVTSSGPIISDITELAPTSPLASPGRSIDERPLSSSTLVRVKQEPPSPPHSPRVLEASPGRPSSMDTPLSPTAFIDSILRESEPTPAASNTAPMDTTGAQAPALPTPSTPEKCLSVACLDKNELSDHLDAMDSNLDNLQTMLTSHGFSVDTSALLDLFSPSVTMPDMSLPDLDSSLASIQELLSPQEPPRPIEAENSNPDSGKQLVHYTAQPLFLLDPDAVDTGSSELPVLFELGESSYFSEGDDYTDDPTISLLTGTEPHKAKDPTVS

cells = assay type: functional
[2] = target: T2, Calpain-2 catalytic subunit (Sus scrofa, UniProt P43367); experiment: m-calpain protease blockers, concentration series – biochemical, fluorogenic peptide substrate, dose response (AID 1420); assay type: functional
T2 sequence (P43367 whole entry): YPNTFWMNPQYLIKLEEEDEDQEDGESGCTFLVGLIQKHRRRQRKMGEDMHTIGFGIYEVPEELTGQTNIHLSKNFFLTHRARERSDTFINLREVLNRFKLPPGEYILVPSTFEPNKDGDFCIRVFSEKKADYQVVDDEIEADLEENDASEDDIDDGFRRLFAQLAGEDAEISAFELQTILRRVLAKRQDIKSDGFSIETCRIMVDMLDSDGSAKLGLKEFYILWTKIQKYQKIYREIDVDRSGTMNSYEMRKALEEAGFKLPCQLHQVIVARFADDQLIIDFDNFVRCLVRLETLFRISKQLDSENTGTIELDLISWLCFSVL

[3] = P. falciparum Dd2 growth inhibitors, dose response, SYBR Green, cherry-picked samples (AID 1159567); assay type: functional, cell-based
[4] = target: T1, Heat shock factor protein 1; experiment: enhancement of HSF1-driven luciferase signal – cell-based, NIH3T3, luminescence, dose retest, confirmation (AID 435004); assay type: functional;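 also: stress induced by proteasome inhibitor MG132 added 30 min after compound; luciferase reporter driven by HSF1 response element in NIH3T3 cells; actives raise luminescence as potentiators of the MG132 stress response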
[5] = non-specific 3'UTR reporter inhibition in Clone20-Shn3RL – cell-based, Renilla luciferase, cherry-picked, counter-screen for Shn3 inhibitor project, dose response (AID 624133); assay type: functional
[6] = reduction of Shn3 3'UTR-driven luciferase in osteoblasts – cell-based, Clone20 osteoblasts, firefly luciferase, cherry-picked, dose response (AID 624132); assay type: functional;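 also: firefly luciferase luminescence from reporter carrying the Shn3 3'UTR in osteoblasts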
[7] = microbe, parasite or virus in culture; assay type: functional; conditions: Mycobacterium tuberculosis

With `CC1=C(C(=O)Nc2ccccc2C)C(c2cccs2)NC(S)=N1` (stereo not drawn) the EC50 [1] was > 195 µM (not active).
For `CCOC(=O)Cc1nc2cc(Cl)ccc2o1`, the IC50 (cells) was 18.6 µM (active).
In the case of `COC(=O)c1c(NC(NC(C)=O)C(Cl)(Cl)Cl)sc2c1CCCC2` (stereo not drawn), the IC50 [2] is reported as > 50 µM (not active).
For `COc1ccc(Cn2nnnc2C(c2ccccc2Cl)N2CCC(C(N)=O)CC2)cc1` (stereo not drawn), the EC50 [1] was > 195 µM (not active).
For `Cc1ccccc1S(=O)(=O)N1C[C@@H]2N[C@H](C1)[C@@H]2c1ccc(-c2ccc(C#N)cc2)cc1`, the AC50 [3] was 3.32 µM (active).
With `COc1ccc2c3c(n(C)c2c1)[C@H](CO)N(C(=O)c1cccc(F)c1)CC31CN(C(=O)c2cccc(F)c2)C1` the AC50 [3] was 9.32 µM (active).
In the case of `Cn1c(SCC(=O)NNC(=O)Nc2ccc(Cl)cc2)nnc1-c1ccccc1`, the EC50 [4] is reported as > 260 µM (inactive).
For `COc1ccc(COc2cccc(C=O)c2)cc1`, the IC50 (cells) was 30.9 µM (active).
For `Cc1ccc2cc(CN(CC3CCCO3)C(=O)NC3CCCCC3)c(O)nc2c1C` (stereo not drawn), the AC50 [5] was 9.37 µM (active) and the AC50 [6] was 4.49 µM (active).
In the case of `COc1ccccc1/C=N/NC(=O)c1ccc(Br)cc1`, the IC50 [2] is reported as 45.9 µM (not active).
In the case of `COc1ccc2c3c(n(C)c2c1)[C@H](CO)N(C(=O)Nc1ccc(F)cc1)CC31CN(Cc2cccnc2)C1`, the AC50 [3] is reported as 3.4 µM (active).
In the case of `O=C(C1CCC(=O)N1C1CCCCC1)N1CCC2(CC1)OCCO2` (stereo not drawn), the IC50 [2] is reported as 8.43 µM (not active).
With `CCOc1ccc(CN(C)CC(O)COC(c2ccc(OC)cc2)c2ccc(OC)cc2)cc1` (stereo not drawn) the EC50 [4] was > 260 µM (inactive) and the CC50 [7] was 26.6 µM (active).
For `O=C(NCc1cccnc1)c1ccccc1CCc1ccccc1`, the IC50 [2] was 18.8 µM (not active).
In the case of `CCOc1ccccc1NC(=O)CCS(=O)(=O)c1cccs1`, the EC50 [1] is reported as > 195 µM (not active).
With `COc1ccc(NC(=O)NNC(=O)c2cc3occc3n2C)c(OC)c1` the EC50 [4] was > 260 µM (inactive).
